Source: US20020026052A1, “3-cyanoquinolines, 3-cyano-1,6-naphthyridines, and 3-cyano-1,7-naphthyridines as protein kinase inhibitors” (American Home Products Corporation, priority 2000, published 2002)
Several values for one entry are separate records, joined by “and”; a condition that tells them apart may be missing. Equal entries are not always repeated.

What was measured:
[1] = molecular target: Rat2 fibroblasts stably transformed with v-Src/Hu c-Src fusion gene (Homo sapiens, UniProt P12931, cells depend on it, form not given); experiment: Anchorage Independent Src-transformed Fibroblast Proliferation Assay; assay type: cell-based, Rat; conditions: suspension growth, MTS reagent on Day 5; read-out: anch-indep src-tx fib IC50
Method: Anchorage Independent Src-transformed Fibroblast Proliferation Assay
Rat2 fibroblasts stably transformed with a plasmid containing a CMV promotor controlled v-Src/Hu c-Src fusion gene in which the catalytic domain of human c-Src was inserted in place of the v-Src catalytic domain in the v-Src gene are used for the measurement of src dependent suspension growth. […] Multiple entries for a given compound indicate that it was tested multiple times.

Sequence of Rat2 fibroblasts stably transformed with v-Src/Hu c-Src fusion gene (P12931 whole entry, change not shown, the tested form may be a part): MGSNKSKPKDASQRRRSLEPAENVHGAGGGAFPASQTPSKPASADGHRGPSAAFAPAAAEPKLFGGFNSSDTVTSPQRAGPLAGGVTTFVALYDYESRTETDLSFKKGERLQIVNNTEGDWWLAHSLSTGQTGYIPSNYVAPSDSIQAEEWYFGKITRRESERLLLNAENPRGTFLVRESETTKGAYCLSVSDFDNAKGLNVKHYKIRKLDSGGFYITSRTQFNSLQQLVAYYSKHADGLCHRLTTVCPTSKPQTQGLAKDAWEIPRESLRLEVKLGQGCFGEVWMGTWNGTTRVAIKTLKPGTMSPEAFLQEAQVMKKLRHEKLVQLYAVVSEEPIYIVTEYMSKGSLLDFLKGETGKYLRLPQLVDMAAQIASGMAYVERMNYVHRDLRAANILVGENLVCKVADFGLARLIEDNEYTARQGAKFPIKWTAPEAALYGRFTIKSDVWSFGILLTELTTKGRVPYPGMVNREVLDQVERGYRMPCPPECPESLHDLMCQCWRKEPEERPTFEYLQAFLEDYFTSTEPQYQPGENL

GI50 [1] | melting point | Compound
3 µM | 262 to 263 °C | COc1cc(Nc2c(C#N)cnc3cc(-c4cccc(NC(C)=O)c4)ccc23)c(Cl)cc1Cl [Example 118, N-{3-[3-Cyano-4-(2,4-dichloro-5-methoxyanilino)-7-quinolinyl]phenyl}acetamide]
0.09 µM | 110 to 115 °C | COc1ccc(Cl)c(Nc2c(C#N)cnc3cc(-c4csc(CN5CCOCC5)c4)ccc23)c1 [Example 131, 4-(2-Chloro-5-methoxyanilino)-7-[5-(4-morpholinylmethyl)-3-thienyl]-3-quinolinecarbonitrie]
0.73 µM | 186 to 188 °C | COc1cc(Nc2c(C#N)cnc3cc(-c4ccc(CN5CCOCC5)c(CN5CCOCC5)c4)ccc23)c(Cl)cc1C [Example 133, 7-[3 ,4-Bis(4-morpholinylmethyl)phenyl]-4-(2-chloro-5-methoxy-4-methylanilino)-3-quinolinecarbonitrile]
> 10 µM | 78 to 80 °C | CCOC(=O)C1CCCCN1Cc1ccc(-c2ccc3c(Nc4cc(OC)c(Cl)cc4Cl)c(C#N)cnc3c2)cc1 (centres unmarked) [Example 145, Ethyl 1-{4-[3-cyano-4-(2,4-dichloro-5-methoxyanilino)-7-quinolinyl]benzyl}-2-piperidinecarboxylate]
4.6 µM | 230 °C (dec.) | COc1cc(Nc2c(C#N)cnc3cc(-c4ccc(CN5CCCCC5C(=O)O)cc4)ccc23)c(Cl)cc1Cl (centres unmarked) [Example 147, 1-{4-[3-Cyano-4-(2,4-dichloro-5-methoxyanilino)-7-quinolinyl]benzyl}-2-piperidinecarboxylic acid]
2.5 µM | 235 °C (dec.) | COc1cc(Nc2c(C#N)cnc3cc(-c4ccc(CN5CCCC(C(=O)O)C5)cc4)ccc23)c(Cl)cc1Cl (centres unmarked) [Example 149, 1-(4-{3-Cyano-4-[(2,4-dichloro-5-methoxyphenyl)amino]-7-quinolinyl}benzyl)-3-piperidinecarboxylic acid]
4.8 µM and 3.8 µM | 215 to 217 °C | COc1cc(Nc2c(C#N)cnc3cc(C#CCCl)ccc23)c(Cl)cc1Cl [Example 152, 7-(3-Chloro-1-propynyl)-4-[(2,4-dichloro-5-methoxyphenyl)amino]-3-quinolinecarbonitrile]
2.8 µM and 2.7 µM | 216 to 219 °C | COc1cc(Nc2c(C#N)cnc3cc(-c4ccc(CN5CCSCC5)cc4)ccc23)c(Cl)cc1Cl [Example 153, 4-[(2,4-Dichloro-5-methoxyphenyl)amino]-7-[4-(4-thiomorpholinylmethyl)phenyl]-3-quinolinecarbonitrile]
> 10 µM | 231 to 232 °C | COc1cc(Nc2c(C#N)cnc3cc(-c4sccc4C=O)ccc23)c(Cl)cc1Cl [Example 163, 4-(2,4-Dichloro-5-methoxyanilino)-7-(3-formyl-2-thienyl)-3-quinolinecarbonitrile]
5.6 µM | 221 to 222 °C | COc1cc(Nc2c(C#N)cnc3cc(-c4cccc(N)c4)ccc23)c(Cl)cc1Cl [Example 174, 7-(3-Aminophenyl)-4-[(2,4-dichloro-5-methoxyphenyl)amino]-3-quinolinecarbonitrile]

Further lines, the compound ahead of its results:

Compound | GI50 [1] | melting point
COc1cc(Nc2c(C#N)cnc3cc(-c4ncccc4CN4CCOCC4)ccc23)c(Cl)cc1Cl [Example 111, 4-(2,4-Dichloro-5-methoxyanilino)-7-[3-(morpholin-4-ylmethyl)-pyridin-2-yl]-3-quinolinecarbonitrile] | > 10 µM | 151 to 154 °C
COc1cc(Nc2c(C#N)cnc3cc(-c4cccc5ccccc45)ccc23)c(Cl)cc1Cl [Example 116, 4-(2,4-Dichloro-5-methoxyanilino)-7-(1-naphthyl)-3-quinolinecarbonitrile] | > 10 µM | 192 to 193 °C
COc1cc(Nc2c(C#N)cnc3cc(-c4ccc5ccccc5c4)ccc23)c(Cl)cc1Cl [Example 117, 4-(2,4-Dichloro-5-methoxyanilino)-7-(2-naphthyl)-3-quinolinecarbonitrile] | 6.9 µM | 243 to 244 °C
COc1cc(Nc2c(C#N)cnc3cc(-c4cc5ccccc5o4)ccc23)c(Cl)cc1Cl [Example 119, 7-(1-Benzofuran-2-yl)-4-(2,4-dichloro-5-methoxyanilino)-3-quinolinecarbonitrile] | > 10 µM | 276 to 277 °C
COc1cc(Nc2c(C#N)cnc3cc(-c4ccc(C(=O)O)cc4)ccc23)c(Cl)cc1Cl [Example 121, 4-[3-Cyano-4-(2,4-dichloro-5-methoxyanilino)-7-quinolinyl]benzoic acid] | > 10 µM | 282 to 283 °C
COc1cc(Nc2c(C#N)cnc3cc(C#Cc4ccc(C)cc4)ccc23)c(Cl)cc1Cl [Example 141, 4-(2,4-Dichloro-5-methoxyanilino)-7-[2-(4-methylphenyl)ethynyl]-3-quinolinecarbonitrile] | > 10 µM | 223 to 225 °C
COc1cc(Nc2c(C#N)cnc3cc(/C=C/C(=O)OC(C)(C)C)ccc23)c(Cl)cc1Cl [Example 142, (E)-tert-Butyl 3-[3-cyano-4-(2,4-dichloro-5-methoxyanilino)-7-quinolinyl]-2-propenoate] | > 10 µM | 203 to 204 °C
COc1cc(Nc2c(C#N)cnc3cc(C#CCO)ccc23)c(Cl)cc1Cl [Example 143, 4-(2,4-Dichloro-5-methoxyanilino)-7-(3-hydroxy-1-propynyl)-3-quinolinecarbonitrile] | > 10 µM | 245 °C (dec.)
CCOC(=O)CC1CCN(Cc2ccc(-c3ccc4c(Nc5cc(OC)c(Cl)cc5Cl)c(C#N)cnc4c3)cc2)CC1 [Example 144, Ethyl (1-{4-[3-cyano-4-(2,4-dichloro-5-methoxyanilino)-7-quinolinyl]benzyl}-4-piperidinyl) acetate] | 0.092 µM | 142 to 144 °C
CCOC(=O)C1CCCN(Cc2ccc(-c3ccc4c(Nc5cc(OC)c(Cl)cc5Cl)c(C#N)cnc4c3)cc2)C1 (centres unmarked) [Example 148, Ethyl 1-(4-{3-cyano-4-[(2,4-dichloro-5-methoxyphenyl)amino]-7-quinolinyl}benzyl)-3-piperidinecarboxylate] | 2.1 µM | 67 to 70 °C
COc1cc(Nc2c(C#N)cnc3cc(-c4ccc(CN5CCS(=O)(=O)CC5)cc4)ccc23)c(Cl)cc1Cl [Example 150, 4-[(2,4-Dichloro-5-methoxyphenyl)amino]-7-{4-[(1,1-dioxido-4-thiomorpholinyl)methyl]phenyl}-3-quinolinecarbonitrile] | 0.5 µM and 0.52 µM | 248 to 251 °C
COc1cc(Nc2c(C#N)cnc3cc(-c4ccc(CO)n4C)ccc23)c(Cl)cc1Cl [Example 162, 4-(2,4-Dichloro-5-methoxyanilino)-7-[5-(hydroxymethyl)-1-methyl-lH-pyrrol-2-yl]-3-quinolinecarbonitrile] | > 10 µM | 175 °C (dec.)
COc1cc(Nc2c(C#N)cnc3cc(-c4cccn4C(=O)OC(C)(C)C)ccc23)c(Cl)cc1Cl [Example 164, tert-butyl 2-[3-cyano-4-(2,4-dichloro-5-methoxyanilino)-7-quinolinyl]pyrrole-1-carboxylate] | > 10 µM | 135 °C (dec.)
COc1cc(Nc2c(C#N)cnc3cc(C#CCN4CCOCC4)c(OC)cc23)c(Cl)cc1Cl [Example 166, 4-(2,4-Dichloro-5-methoxyanilino)-6-methoxy-7-[3-(4-morpholinyl)-1-propynyl]-3-quinolinecarbonitrile] | 0.72 µM | 105 to 108 °C
COc1cc(Nc2c(C#N)cnc3cc(-c4csc(CN5CCOCC5)c4)ccc23)c(C)cc1Cl [Example 167, 4-(4-Chloro-5-methoxy-2-methylanilino)-7-[5-(4-morpholinylmethyl)-3-thienyl]-3-quinolinecarbonitrile] | 0.9 µM | > 108 °C (dec.)
COC(=O)C1CCN(Cc2ccc(-c3ccc4c(Nc5cc(OC)c(Cl)cc5Cl)c(C#N)cnc4c3)nc2)CC1 [Example 176, 1-{6-[3-Cyano-4-(2,4-dichloro-5-methoxyphenylamino)-quinolin-7-yl]-pyridin-3-ylmethyl}-piperidine-4-carboxylic acid methyl ester] | 0.09 µM | 186 to 188 °C
CCN1CCN(c2ccc(-c3ccc4c(Nc5cc(OC)c(Cl)cc5Cl)c(C#N)cnc4c3)nc2)CC1 [Example 179, 4-[(2,4-Dichloro-5-methoxyphenyl)amino]-7-[5-(4-ethyl-1-piperazinyl)-2-pyridinyl]-3-quinolinecarbonitrile] | 0.27 µM | 232 to 234 °C
COc1cc(Nc2c(C#N)cnc3cc(-c4cnc(N5CCOCC5)nc4)ccc23)c(Cl)cc1Cl [Example 186, 4-(2,4-Dichloro-5-methoxyanilino)-7-[2-(4-morpholinyl)-5-pyrimidinyl]-3-quinolinecarbonitrile] | > 10 µM | > 260 °C
COc1cc(Nc2c(C#N)cnc3cc(-c4ccc(Oc5ccc(CN6CCOCC6)cc5)nc4)ccc23)c(Cl)cc1Cl [Example 193, 4-(2,4-Dichloro-5-methoxyanilino)-7-{6-[4-(4-morpholinylmethyl)phenoxy]-3-pyridinyl)-3-quinolinecarbonitrile] | > 10 µM | 176 to 178 °C
COc1ccc(-c2ccc3c(Nc4cc(OC)c(Cl)cc4Cl)c(C#N)cnc3c2)cc1 [Example 194, 4-(2,4-Dichloro-5-methoxyanilino)-7-(4-methoxyphenyl)-3-quinolinecarbonitrile] | > 10 µM | 210 to 212 °C
COc1cc(Nc2c(C#N)cnc3cc(-c4cnc(C=O)n4C)c(OC)cc23)c(Cl)cc1Cl [Example 228, 4-(2,4-Dichloro-5-methoxyanilino)-7-(2-formyl-1-methyl-1H-imidazol-5-yl)-6-methoxy-3-quinolinecarbonitrile] | > 10 µM | 141 to 144 °C
